Where two headings read alike, the source gives them in different places. Numbered stars: 1 amine (or outer) side, 2 acyl side, 3 side chain; on linkers, the order of the positions; unused ones are H or OH. Bridge positions count the residues as written; N and C are the ends. Side chains are listed from the residue outwards. Peptide text beside a SMILES is read from it. * marks the point of attachment. C20 diacid = O=C(O)CCCCCCCCCCCCCCCCCCC(=O)*; γGlu = O=C(O)[C@H](CCC(=O)[*:2])N[*:1]
Columns and labels:
[1] = target: T1, human amylin 3(a) receptor (human calcitonin receptor + RAMP-3) in BHK570 cells (Homo sapiens, UniProt O60896+P30988); experiment: ASSAY (II)a functional assay, human amylin receptor (CRE luciferase); format: cell-based
T1 construct: expressed in transfected cells
Method in brief: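 Functional agonism was measured by CRE-luciferase reporter luminescence in BHK cells bearing calcitonin receptor, or calcitonin receptor plus RAMP-3 as the amylin 3(a) receptor. Stimulation lasted 3 hours at 37° C.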

[2] = ASSAY (IV) determination of solubility; format: physicochemical
Method in brief: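 Samples of polypeptide, prepared from a water stock at […] and diluted 1:1 into 100 mM buffers spanning pH 3.0 to 8.0, stood 18 hours at room temperature. Polypeptide concentration was then determined by UPLC following centrifugation.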

[3] = target: T2, human amylin receptor (membranes from Amylin 3(a)/CRE-luc cells) (Homo sapiens, UniProt O60896+P30988); experiment: ASSAY (V) binding to the human amylin receptor (SPA, 125I-rat amylin);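 also: competition binding of cell membranes (35 ng/µL) mixed with SPA beads in 384-well plates at 40 µL total volume, read by scintillation counting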
T2 construct: expressed in transfected cells
T2 sequence (P30988 25-474): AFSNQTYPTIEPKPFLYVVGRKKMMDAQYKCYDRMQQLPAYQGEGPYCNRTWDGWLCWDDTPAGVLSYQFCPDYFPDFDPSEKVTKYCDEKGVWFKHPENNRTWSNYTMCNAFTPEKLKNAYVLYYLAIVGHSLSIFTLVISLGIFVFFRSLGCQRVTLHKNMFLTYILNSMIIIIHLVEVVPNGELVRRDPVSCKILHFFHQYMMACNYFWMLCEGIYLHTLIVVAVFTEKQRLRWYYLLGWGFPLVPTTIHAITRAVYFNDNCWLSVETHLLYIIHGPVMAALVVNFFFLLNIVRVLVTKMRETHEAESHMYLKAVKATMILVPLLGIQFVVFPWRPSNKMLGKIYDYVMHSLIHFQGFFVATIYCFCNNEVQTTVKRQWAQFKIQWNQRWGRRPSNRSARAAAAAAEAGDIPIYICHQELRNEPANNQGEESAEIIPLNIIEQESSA
T2 sequence (O60896 24-148 partner): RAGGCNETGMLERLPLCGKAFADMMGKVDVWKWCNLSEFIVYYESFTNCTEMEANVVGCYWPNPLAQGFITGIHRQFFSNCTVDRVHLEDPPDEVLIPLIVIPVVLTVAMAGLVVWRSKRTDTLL

[4] = target: T3, rat amylin receptor (rat calcitonin receptor + rat RAMP 3) (Rattus norvegicus, UniProt P32214+Q9JJ73); experiment: ASSAY (VI) binding to the rat amylin receptor; conditions: for IC50: binding to rat amylin receptor, read-out: rAmylin-R bind IC50
T3 construct: expressed in transfected cells; host or cells: BHK tk'ts 13 (transient, FuGENE 6), membranes
T3 sequence (P32214 25-479 isoform P32214-2 limits assumed): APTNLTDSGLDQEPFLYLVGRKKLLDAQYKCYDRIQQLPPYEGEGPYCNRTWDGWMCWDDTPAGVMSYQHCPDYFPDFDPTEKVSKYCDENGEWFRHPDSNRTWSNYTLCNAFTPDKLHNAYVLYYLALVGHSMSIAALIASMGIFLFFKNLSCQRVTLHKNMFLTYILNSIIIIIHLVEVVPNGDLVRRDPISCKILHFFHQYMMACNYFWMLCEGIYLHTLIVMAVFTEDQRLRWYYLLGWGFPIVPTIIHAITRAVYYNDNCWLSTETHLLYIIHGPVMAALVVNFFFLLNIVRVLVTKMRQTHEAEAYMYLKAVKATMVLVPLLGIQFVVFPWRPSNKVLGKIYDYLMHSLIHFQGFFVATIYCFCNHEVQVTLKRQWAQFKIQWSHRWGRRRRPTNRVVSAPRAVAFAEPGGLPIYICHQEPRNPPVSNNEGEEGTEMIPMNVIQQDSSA
T3 sequence (Q9JJ73 23-147 partner): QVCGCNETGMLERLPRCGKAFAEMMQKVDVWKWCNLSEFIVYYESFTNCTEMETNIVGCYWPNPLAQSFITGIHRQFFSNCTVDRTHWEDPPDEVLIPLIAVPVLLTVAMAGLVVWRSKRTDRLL
Method in brief: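 The cell-membrane assay assessed binding at the rat amylin receptor. BHK tk′ts 13 cells were transfected transiently with rat calcitonin receptor, with FuGENE® 6 (Roche) as the transfection reagent, used per the manufacturer's recommendations. Approximately 48 hours after transfection the cells were harvested, and membranes were prepared for measuring binding.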

rat calcitonin receptor = target: T4, rat calcitonin receptor (Rattus norvegicus, UniProt P32214); experiment: ASSAY (VIII) binding to the rat calcitonin receptor; conditions: Table 7, read-out: rCTR bind IC50
T4 construct: expressed in transfected cells; host or cells: BHK tk'ts 13 (transient, FuGENE 6), membranes
T4 sequence (P32214 25-479 isoform P32214-2 limits assumed): T3 sequence (P32214 25-479 isoform P32214-2 limits assumed)
Method in brief: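 Cell membranes for binding came from BHK tk′ts 13 cells harvested approximately 48 hours after transient transfection with the rat receptor.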

[5] = hCTR funct. EC50 divided by hAmylin-R funct. EC50
[6] = hCTR funct. EC50 over hAmylin-R funct. EC50
[7] = human functional selectivity: hCTR funct. EC50 / hAmylin-R funct. EC50
[8] = bistrispropane buffer, pH 6.5, read-out: Solubility pH 6.5 Concentration
[9] = bistrispropane buffer, pH 7.5, read-out: Solubility pH 7.5 Concentration
[10] = bistrispropane buffer, pH 6.0, read-out: Solubility pH 6.0 Concentration
[11] = bistrispropane buffer, pH 7.0, read-out: Solubility pH 7.0 Concentration
[12] = bistrispropane buffer, pH 8.0, read-out: Solubility pH 8.0 Concentration
[13] = glycylglycine buffer, pH 3.0, read-out: Solubility pH 3.0 Concentration
[14] = glycylglycine buffer, pH 4.0, read-out: Solubility pH 4.0 Concentration
[15] = glycylglycine buffer, pH 5.0, read-out: Solubility pH 5.0 Concentration
[16] = Table 5, selectivity, hCTR bind IC50 / hAmylin-R bind IC50
[17] = Table 5a, selectivity, hCTR bind IC50 / hAmylin-R bind IC50
[18] = Table 5b, selectivity, hCTR bind IC50 / hAmylin-R bind IC50
[19] = Table 7, human binding selectivity, included for comparison
[20] = Table 7a (preferred compounds), human binding selectivity, included for comparison
[21] = ratio of human calcitonin receptor binding IC50 to human amylin receptor binding IC50
[22] = Table 7, rat binding selectivity, rCTR IC50 / rAmylin-R IC50
[23] = Table 7a (preferred compounds), rat binding selectivity, rCTR IC50 / rAmylin-R IC50
[24] = ratio of rCTR bind IC50 to rAmylin-R bind IC50

Ratio hCT/hAmylin funct. [1, 5] | Ratio hCT/hAmylin funct. [1, 6] | Ratio hCT/hAmylin funct. [1, 7] | solubility at 18 h [2, 8] | solubility at 18 h [2, 9] | solubility at 18 h [2, 10] | solubility at 18 h [2, 11] | solubility at 18 h [2, 12] | solubility at 18 h [2, 13] | solubility at 18 h [2, 14] | solubility at 18 h [2, 15] | Ratio hCT/hAmylin binding [3, 16] | Ratio hCT/hAmylin binding [3, 17] | Ratio hCT/hAmylin binding [3, 18] | Ratio hCT/hAmylin binding [3, 19] | Ratio hCT/hAmylin binding [3, 20] | Ratio hCT/hAmylin binding [3, 21] | IC50 ([4]; Table 7) | Ratio rCT/rAmylin binding [4, 22] | Ratio rCT/rAmylin binding [4, 23] | SMILES | further results
26.6 | 26.6 | 26.6 | ≥ 200 µM | ≥ 200 µM | ≥ 200 µM | ≥ 200 µM | ≥ 200 µM | ≥ 200 µM | ≥ 200 µM | ≥ 200 µM | 91.8 | 91.8 | 91.8 | 91.8 | 91.8 | 91.8 | 3.14 nM | 46.5 | 46.5 | CC[C@H](C)[C@H](NC(=O)[C@H](C)NC(=O)CNC(=O)[C@H](Cc1ccccc1)NC(=O)[C@H](CC(N)=O)NC(=O)[C@@H]1CCCN1C(=O)[C@H](CO)NC(=O)[C@H](CO)NC(=O)[C@H](Cc1c[nH]cn1)NC(=O)[C@H](CCCNC(=N)N)NC(=O)[C@H](CC(C)C)NC(=O)[C@H](Cc1ccccc1)NC(=O)[C@H](Cc1c[nH]cn1)NC(=O)[C@H](C)NC(=O)[C@H](CC(C)C)NC(=O)[C@H](CCCNC(=N)N)NC(=O)[C@H](CCC(N)=O)NC(=O)[C@@H](NC(=O)[C@H](C)NC(=O)[C@@H]1CSSC[C@H](NC(=O)[C@@H](N)CCCCNC(=O)CC[C@H](NC(=O)CCCCCCCCCCCCCCCCCCC(=O)O)C(=O)O)C(=O)N[C@@H](CC(N)=O)C(=O)N[C@@H]([C@@H](C)O)C(=O)N[C@@H](C)C(=O)N[C@@H]([C@@H](C)O)C(=O)N1)[C@@H](C)O)C(=O)N1CCC[C@H]1C(=O)N[C@@H](CO)C(=O)N[C@@H](CO)C(=O)N[C@H](C(=O)N[C@@H](CC(N)=O)C(=O)N[C@H](C(=O)NCC(=O)N[C@@H](CCCNC(=N)N)C(=O)N[C@@H](CC(N)=O)C(=O)N[C@H](C(=O)N[C@@H](Cc1ccc(O)cc1)C(N)=O)[C@@H](C)O)C(C)C)[C@@H](C)O [Example 85] (H-K([γGlu-C20 diacid])CNTATCATQRLAHFLRHSSPNFGAIPSSTNVGRNTY-NH2; disulfide 2-7 (inferred); N-terminus assumed) | EC50 ([1]; human amylin receptor functional potency, assay (II), read-out: hAmylin-R funct. EC50): 0.146 nM; IC50 ([3]; Table 4, read-out: hAmylin-R bind IC50): 0.876 nM; Ratio hCT/hAmylin binding ([3]; Table 5c, selectivity, hCTR bind IC50 / hAmylin-R bind IC50): 91.8; Ratio rCT/rAmylin binding [4, 24]: 46.5; IC50 (rat calcitonin receptor): 146 nM
6.1 | 6.1 | 6.1 | ≥ 200 µM | ≥ 200 µM | ≥ 200 µM | ≥ 200 µM | ≥ 200 µM | ≥ 200 µM | ≥ 200 µM | ≥ 200 µM | 19.1 | 19.1 | 19.1 | 19.1 | 19.1 | 19.1 | 1.21 nM | 45.6 | 45.6 | CC[C@H](C)[C@H](NC(=O)[C@H](C)NC(=O)CNC(=O)[C@H](Cc1ccccc1)NC(=O)[C@H](CC(N)=O)NC(=O)[C@@H]1CCCN1C(=O)[C@H](CO)NC(=O)[C@H](CO)NC(=O)[C@H](Cc1c[nH]cn1)NC(=O)[C@H](CCCNC(=N)N)NC(=O)[C@H](CC(C)C)NC(=O)[C@H](Cc1ccccc1)NC(=O)[C@H](CCC(=O)O)NC(=O)[C@H](C)NC(=O)[C@H](CC(C)C)NC(=O)[C@H](CCCNC(=N)N)NC(=O)[C@H](CCC(N)=O)NC(=O)[C@@H](NC(=O)[C@H](C)NC(=O)[C@@H]1CSSC[C@H](NC(=O)[C@H](CCCCN)NC(=O)CC[C@H](NC(=O)CCCCCCCCCCCCCCCCCCC(=O)O)C(=O)O)C(=O)N[C@@H](CC(N)=O)C(=O)N[C@@H]([C@@H](C)O)C(=O)N[C@@H](C)C(=O)N[C@@H]([C@@H](C)O)C(=O)N1)[C@@H](C)O)C(=O)N1CCC[C@H]1C(=O)N[C@@H](CO)C(=O)N[C@@H](CO)C(=O)N[C@H](C(=O)N[C@@H](CC(N)=O)C(=O)N[C@H](C(=O)NCC(=O)N[C@@H](CO)C(=O)N[C@@H](CCCNC(=N)N)C(=O)N[C@H](C(=O)N[C@@H](Cc1ccc(O)cc1)C(N)=O)[C@@H](C)O)C(C)C)[C@@H](C)O [Example 16] ({C20 diacid-γGlu}-KCNTATCATQRLAEFLRHSSPNFGAIPSSTNVGSRTY-NH2; disulfide 2-7) | Ratio rCT/rAmylin binding [4, 24]: 45.6; IC50 (rat calcitonin receptor): 55.2 nM
